Assay results taken from patent publication US8383637B2, “2-amino-quinazoline derivatives useful as inhibitors of β-secretase (BACE)” (Jansssen Pharmaceutica N.V., priority 2004, dated 2013).
Read-outs that look alike come from different tables or passages of the source.

Molecular target: T1, β-secretase(BACE) (Homo sapiens, UniProt P56817)
T1 construct: purchased Panvera
Experiment: BACE FS1% Inhibition Assay
Format: biochemical
Conditions: FS1 substrate; for % Inhibition (FS) 10 μM: 10 μM test compound
In short: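 Percent inhibition at each tested concentration, referenced to enzyme-free blank and vehicle-only positive control. Reaction: compound and BACE (4 μg/mL working stock) mixed 20 min at room temperature before FS1 substrate (300 μg/mL working stock), then 1 h at room temperature.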

T1 sequence (P56817 46-501): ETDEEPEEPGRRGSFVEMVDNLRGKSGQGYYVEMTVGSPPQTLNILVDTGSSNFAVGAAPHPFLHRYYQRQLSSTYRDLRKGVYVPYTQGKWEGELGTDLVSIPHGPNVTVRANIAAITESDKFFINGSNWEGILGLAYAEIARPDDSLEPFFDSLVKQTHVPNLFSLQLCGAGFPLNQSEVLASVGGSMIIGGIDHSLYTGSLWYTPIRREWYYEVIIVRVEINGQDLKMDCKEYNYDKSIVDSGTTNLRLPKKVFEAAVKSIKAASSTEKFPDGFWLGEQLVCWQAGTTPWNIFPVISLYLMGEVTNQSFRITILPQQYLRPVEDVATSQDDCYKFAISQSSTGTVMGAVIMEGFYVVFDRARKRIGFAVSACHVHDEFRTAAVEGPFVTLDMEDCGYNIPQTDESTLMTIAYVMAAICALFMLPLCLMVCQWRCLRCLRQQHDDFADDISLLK

SMILES | % Inhibition (FS) 0.3 μM (0.3 μM test compound) [%] | % Inhibition (FS) 1 μM (1 μM test compound) [%] | % Inhibition (FS) 3 μM (3 μM test compound) [%] | also measured
COc1ccccc1-c1ccc2c(c1)CN(CCNC(=O)CCN)C(N)=N2 [Compound 493] | <30 | <30 | 49 | 
CN(C(=O)c1cccc(CN2Cc3cc(-c4ccc(C5CCCCC5)cc4)ccc3N=C2N)c1)C1CCCCC1 [Compound 267] | <30 | 39 | 38 | 
CC(C)[C@@H](CNC(=O)C1CCCCC1)N1Cc2cc(Oc3ccccc3)ccc2N=C1N [Compound 528] | <30 | <30 | 41 | 
CCCC(CNC(=O)C12CC3CC(CC(C3)C1)C2)N1Cc2cc(Oc3ccccc3)ccc2N=C1N (stereo not shown) [Compound 555] |  |  |  | % Inhibition (FS) 0.3 μM (0.3 μM test compound, 0.3 µM): <30%; % Inhibition (FS) 1 μM (1 μM test compound, 1 µM): <30%; % Inhibition (FS) 3 μM (3 μM test compound, 3 µM): 46%
NC1=Nc2ccc(-c3ccccc3)cc2CN1CCNC(=O)CCC(F)(F)F [Compound 684] |  |  |  | % Inhibition (FS) (0.3 μM test compound): 33%; % Inhibition (FS) (1 μM test compound): 38%; % Inhibition (FS) (3 μM test compound): 78%
CC(C)(C)C1CCC(C(=O)NCCN2Cc3cc(Oc4ccccc4)ccc3N=C2N)CC1 (stereo not shown) [Compound 184] | <30 | <30 | 31 | 
COC(=O)Cc1cccc(CN(C)C(=O)CCC(C2CCCCC2)N2Cc3cc(Oc4ccccc4)ccc3N=C2N)c1 (stereo not shown) [Compound 775] |  |  |  | % Inhibition (FS) (0.3 μM test compound): <30%; % Inhibition (FS) (1 μM test compound): 62%; % Inhibition (FS) (3 μM test compound): 111%
Cc1ccccc1-c1ccc2c(c1)CN(CCNC(=O)C13CC4CC(CC(C4)C1)C3)C(N)=N2 [Compound 658] | <30 | 62 | 100 | 
NC1=Nc2ccc(Oc3ccccc3)cc2CN1CCC(=O)N(C1CCCCC1)C1CCCCC1 [Compound 180] | <30 | <30 | 77 | 
CC(=O)Nc1ccc(Sc2ccc3c(c2)CN(Cc2cccc(C(=O)N(C)C4CCCCC4)c2)C(N)=N3)cc1 [Compound 417] | <30 | <30 | 78 | 
COc1ccc(F)cc1-c1ccc2c(c1)CN(CCNC(=O)C1CCCCC1)C(N)=N2 [Compound 631] | <30 | <30 | 48 | 
NC1=Nc2ccc(Oc3ccccc3)cc2CN1C1c2ccccc2-c2cccc(C(=O)N(C3CCCCC3)C3CCCCC3)c21 (stereo not shown) [Compound 124] |  |  | 56 | % Inhibition (FS) 10 μM: 67%
CN(C(=O)c1ncoc1C(Cc1ccccc1)N1Cc2cc(Oc3ccccc3)ccc2N=C1N)C1CCCCC1 (stereo not shown) [Compound 559] | <30 | <30 | <30 | 
COc1cccc(F)c1-c1ccc2c(c1)CN(CCNC(=O)C1CCOCC1)C(N)=N2 [Compound 699] |  |  |  | % Inhibition (FS) (0.3 μM test compound): 31%; % Inhibition (FS) (1 μM test compound): 64%; % Inhibition (FS) (3 μM test compound): 93%
NC1=Nc2ccc(-c3ccccc3Cl)cc2CN1CCNC(=O)C1CCC1 [Compound 649] | 34 | 65 | 95 | 
COC1CCCC(C(=O)NCCN2Cc3cc(C4=CCCC4)ccc3N=C2N)C1 (stereo not shown) [Compound 706] |  |  |  | % Inhibition (FS) (0.3 μM test compound): <30%; % Inhibition (FS) (1 μM test compound): <30%; % Inhibition (FS) (3 μM test compound): <30%
CC(C)N(C(=O)CC(C1CCCCC1)N1Cc2cc(Oc3ccccc3)ccc2N=C1N)C1CCCCC1 (stereo not shown) [Compound 200] | <30 | <30 | <30 | 
NC1=Nc2ccc(Oc3ccccc3)cc2CN1C[C@H](NC(=O)C1CCCCC1)C1CCCCC1 [Compound 636, (R)-enantiomer of cyclohexanecarboxylic acid [2-(2-amino-6-phenoxy-4H-quinazolin-3-yl)-1-cyclohexyl-ethyl]-amide] |  |  |  | inhibition at 0.3 µM (0.3 μM test compound, read-out: % Inhibition (FS) 0.3 μM): < 30%; inhibition at 1 µM (1 μM test compound, read-out: % Inhibition (FS) 1 μM): < 30%; inhibition at 3 µM (3 μM test compound, read-out: % Inhibition (FS) 3 μM): 30%
CC(=O)N1CCC(C(=O)NCCN2Cc3cc(-c4ccccc4C)ccc3N=C2N)CC1 [Compound 695] |  |  |  | % Inhibition (FS) (0.3 μM test compound): <30%; % Inhibition (FS) (1 μM test compound): <30%; % Inhibition (FS) (3 μM test compound): 54%
CC(C)C(CC(=O)NC1CCCCC1)N1Cc2cc(Oc3ccccc3)ccc2N=C1N (stereo not shown) [Compound 401] | <30 | <30 | 52 | 
CN(C(=O)c1cccc(CN2Cc3cc(Oc4ccccc4S(C)(=O)=O)ccc3N=C2N)c1)C1CCCCC1 [Compound 472] | <30 | <30 | <30 | 
CC(C)CCC(=O)NCC(Cc1ccc(O)cc1)N1Cc2cc(Oc3ccccc3)ccc2N=C1N (stereo not shown) [Compound 615] | <30 | <30 | <30 | 
CC(=O)c1cccc(-c2ccc3c(c2)CN(CCNC(=O)CC2CCCC2)C(N)=N3)c1 [Compound 582] | <30 | <30 | <30 | 

SMILES | % Inhibition (FS) 0.3 μM (0.3 μM test compound) [%] | % Inhibition (FS) 1 μM (1 μM test compound) [%] | % Inhibition (FS) 3 μM (3 μM test compound) [%] | also measured
NC1=Nc2ccc(Oc3ccccc3)cc2CN1CCNCC1CCCCC1 [Compound 427] | <30 | 26 | 62 | 
CCCC(CNC(=O)C1CCCCC1)N1Cc2cc(Oc3ccccc3)ccc2N=C1N (stereo not shown) [Compound 554] |  |  |  | % Inhibition (FS) 0.3 μM (0.3 μM test compound, 0.3 µM): <30%; % Inhibition (FS) 1 μM (1 μM test compound, 1 µM): <30%; % Inhibition (FS) 3 μM (3 μM test compound, 3 µM): 42%
CN1CCC(N(C)C(=O)c2cccc(C(c3ccccc3)N3Cc4cc(Oc5ccccc5)ccc4N=C3N)c2)CC1 (stereo not shown) [Compound 316] | <30 | <30 | <30 | 
CN(C(=O)c1cccc(CN2Cc3cc(Oc4ccccc4-c4nc5ccccc5s4)ccc3N=C2N)c1)C1CCCCC1 [Compound 470] | <30 | <30 | 31 | 
CCOC(=O)C1CCC(N(C)C(=O)CCC(C2CCCCC2)N2Cc3cc(Oc4ccccc4)ccc3N=C2N)CC1 (stereo not shown) [Compound 763] |  |  |  | % Inhibition (FS) (0.3 μM test compound, 0.3 µM): <30%; % Inhibition (FS) (1 μM test compound, 1 µM): 84%; % Inhibition (FS) (3 μM test compound, 3 µM): 109%
CC(=O)Nc1ccc(C(=O)NCCN2Cc3cc(-c4cccc(CO)c4)ccc3N=C2N)cc1 [Compound 593] | <30 | <30 | <30 | 
NC1=Nc2ccc(C3=CCCCC3)cc2CN1CCNC(=O)C1CCC(C(F)(F)F)CC1 (stereo not shown) [Compound 704] |  |  |  | % Inhibition (FS) (0.3 μM test compound): <30%; % Inhibition (FS) (1 μM test compound): <30%; % Inhibition (FS) (3 μM test compound): <30%
CCCCCC(CCC(=O)NC1CCCCCC1)N1Cc2cc(Oc3ccccc3)ccc2N=C1N (stereo not shown) [Compound 150] | <30 | <30 | 90 | 
NC1=Nc2ccc(-c3ccccc3F)cc2CN1CCNC(=O)C12CC3CC(CC(C3)C1)C2 [Compound 644] | 46 | 72 | 104 | 
CN(C(=O)CC(c1ccccc1)N1Cc2cc(F)ccc2N=C1N)C1CCCCC1 (stereo not shown) [Compound 803] |  |  |  | inhibition at 0.3 µM (0.3 μM test compound, read-out: % Inhibition (FS)): < 30%; inhibition at 1 µM (1 μM test compound, read-out: % Inhibition (FS)): < 30%; inhibition at 3 µM (3 μM test compound, read-out: % Inhibition (FS)): < 30%
CC(=O)c1cccc(-c2ccc3c(c2)CN(CCNC(=O)Cc2ccccc2)C(N)=N3)c1 [Compound 598] | <30 | <30 | 36 | 
CC1CCN(C(=O)CCCC(CCC(=O)N2CCC(C)CC2)N2Cc3cc(Oc4ccccc4)ccc3N=C2N)CC1 (stereo not shown) [Compound 532] | <30 | <30 | 68 | 
C=CCc1cccc(OC)c1Oc1ccc2c(c1)CN(Cc1cccc(C(=O)N(C)C3CCCCC3)c1)C(N)=N2 [Compound 481] | <30 | <30 | 32 | 
NC1=Nc2ccc(Oc3ccccc3)cc2CN1Cc1ocnc1C(=O)NC1CCCCC1 [Compound 640] | <30 | <30 | <30 | 
CCCC(=O)NCCN1Cc2cc(-c3ccccc3Cl)ccc2N=C1N [Compound 652] | 31 | 63 | 91 | 
CCCC(CCC)C(=O)N1CCC(CN2Cc3cc(Oc4ccccc4)ccc3N=C2N)CC1 [Compound 526] | <30 | 36 | 98 | 
COc1cccc(C(=O)NCCN2Cc3cc(Oc4ccccc4)ccc3N=C2N)c1 [Compound 217] | <30 | <30 | 56 | 
COc1cccc(F)c1-c1ccc2c(c1)CN(CCNC(=O)C1CCC(C(F)(F)F)CC1)C(N)=N2 (stereo not shown) [Compound 700] |  |  |  | % Inhibition (FS) (0.3 μM test compound): <30%; % Inhibition (FS) (1 μM test compound): 36%; % Inhibition (FS) (3 μM test compound): 85%
CN(C(=O)CCC(C1CCCCC1)N1Cc2cc(Oc3ccccc3)ccc2N=C1N)C1CCOCC1 (stereo not shown) [Compound 633] | <30 | 30 | 70 | 
CCCCCCCCCC(=O)NCCN1Cc2cc(Oc3ccccc3)ccc2N=C1N [Compound 142] |  |  | <30 | % Inhibition (FS) 10 μM: 38%
CC1CCC(NC(=O)c2cccc(CN3Cc4cc(Oc5ccccc5)ccc4N=C3N)c2)CC1 (stereo not shown) [Compound 213] | <30 | <30 | <30 | 
CN(C(=O)c1cccc(CN2Cc3cc(C=Cc4ccccc4)ccc3N=C2N)c1)C1CCCCC1 [Compound 266] | <30 | 34 | <30 | 
